Source: ChEMBL document CHEMBL1201862, “PubChem BioAssay data set” (2004)
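Cultured in 96-well plates, cells were exposed to test compound for 48 hours across five concentrations. Abbreviation: GI50, concentration required for 50% inhibition of growth.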 Active and inactive are the calls of the source. Cut-off read from the data, not from the text of the source: active = GI50 up to about 1.1 µM and inactive = higher.

Legend:
Test in all cases: inhibition of tumour cell growth, NCI panel, 48 h
Hs-578T = tested on: Hs-578T
BT-549 = tested on: BT-549
DLD-1 = tested on: DLD-1
DMS-114 = tested on: DMS-114
KM-20L2 = tested on: KM-20L2
LXFL 529 = tested on: LXFL 529
M19-MEL = tested on: M19-MEL
SNB-78 = tested on: SNB-78

Structure (SMILES): O=C1NC(c2cccc(OCc3ccccc3)c2)Nc2ccccc21 (stereo not given)
- GI50 (Hs-578T): 0.241 µM (active)

Structure (SMILES): C/C(=N/NC(=S)Nc1cccc(Cl)c1)c1cccc(/C(C)=N\NC(=S)Nc2cccc(Cl)c2)n1
- GI50 (BT-549): 0.94 µM (active)
- GI50 (Hs-578T): > 23.8 µM (inactive)

Structure (SMILES): C=C1C(=O)OC2/C=C(/C)C3CC(O)C(C)(CC(OC(=O)/C(C)=C/C)C12)O3 (stereo not given)
- GI50 (DLD-1): 1.54 µM (inactive)
- GI50 (DMS-114): 7.01 µM (inactive)
- GI50 (KM-20L2): 2.32 µM (inactive)
- GI50 (LXFL 529): 2.08 µM (inactive)
- GI50 (M19-MEL): 2.96 µM (inactive)
- GI50 (SNB-78): 2.61 µM (inactive)

Structure (SMILES): COCOc1cc(OCOC)cc(C(=O)Oc2ccccc2)c1
- GI50 (BT-549): > 100 µM (inactive)
- GI50 (Hs-578T): 43.1 µM (inactive)

Structure (SMILES): CC(=O)OC12c3ccccc3-c3ccccc3C1C1C(=O)N(C)C(=O)C12Cl (stereo not given)
- GI50 (Hs-578T): > 10 µM (inactive)

Structure (SMILES): COC(CC1(OC)OC(=O)C=C1N)OC (stereo not given)
- GI50 (DLD-1): > 100 µM (inactive)
- GI50 (DMS-114): > 100 µM (inactive)
- GI50 (LXFL 529): > 100 µM (inactive)
- GI50 (M19-MEL): > 100 µM (inactive)
- GI50 (SNB-78): > 100 µM (inactive)

Structure (SMILES): COc1ccccc1-c1cc(=O)c2ccccc2n1C1CC1
- GI50 (Hs-578T): 5.3 µM (inactive)

Structure (SMILES): CCN(CC)CCCC(C)Nc1cc(/C=C/c2ccc(Cl)cc2)nc2cc(N(C)C)ccc12 (stereo not given)
- GI50 (BT-549): 1.65 µM (inactive)
- GI50 (Hs-578T): 2.37 µM (inactive)

Structure (SMILES): N#CCCC(C=O)(CCC#N)CCC#N
- GI50 (BT-549): > 100 µM (inactive)
- GI50 (Hs-578T): > 100 µM (inactive)

Structure (SMILES): CCCCCCCCC/C=C1\CC(CO)(COC(=O)C2CCCCC2)OC1=O (stereo not given)
- GI50 (BT-549): 18.4 µM (inactive)
- GI50 (Hs-578T): 16.4 µM (inactive)

Structure (SMILES): C=C1c2nc3ccccc3n2C=C(c2ccc(C)cc2)N1c1ccc(OC)cc1
- GI50 (BT-549): > 82.8 µM (inactive)
- GI50 (Hs-578T): > 77.4 µM (inactive)

Structure (SMILES): Cc1ccsc1/C=N/Nc1ncccn1
- GI50 (BT-549): > 100 µM (inactive)
- GI50 (Hs-578T): > 100 µM (inactive)

Structure (SMILES): CC(=O)C1(O)CCC2(O)C3(O)CC=C4CC(O)CCC4(C)C3CC(OC(=O)c3ccc(O)cc3)C12C (stereo not given)
- GI50 (BT-549): > 100 µM (inactive)
- GI50 (Hs-578T): > 100 µM (inactive)

Structure (SMILES): CC(=O)Nc1ccc(-c2nnc(SCC(=O)Nc3ccccc3C)o2)cc1
- GI50 (DLD-1): 49.8 µM (inactive)
- GI50 (DMS-114): > 100 µM (inactive)
- GI50 (KM-20L2): 69.3 µM (inactive)
- GI50 (LXFL 529): 33.3 µM (inactive)
- GI50 (M19-MEL): 70.1 µM (inactive)
- GI50 (SNB-78): 47 µM (inactive)

Structure (SMILES): C[N+]1(C)CCC(C#N)(c2ccccc2)CC1
- GI50 (Hs-578T): > 100 µM (inactive)

Structure (SMILES): CC(=O)Nc1nc(C)c(S(=O)(=O)NC(=O)NC2NC(=O)NC2=O)s1 (stereo not given)
- GI50 (BT-549): > 100 µM (inactive)
- GI50 (Hs-578T): > 100 µM (inactive)

Structure (SMILES): Nc1ccc2nc3n(c(=O)c2c1)CCCCC3
- GI50 (BT-549): 89.9 µM (inactive)
- GI50 (Hs-578T): > 100 µM (inactive)

Structure (SMILES): COc1c(O)cc2oc(-c3ccc(O)cc3)cc(=O)c2c1O [HISPIDULIN]
- GI50 (BT-549): 28.3 µM (inactive)
- GI50 (Hs-578T): 18.9 µM (inactive)

Structure (SMILES): N[C@H]1CCC[C@@H](O)C1O (stereo not given in full)
- GI50 (Hs-578T): > 100 µM (inactive)

Structure (SMILES): COc1ccc2nc3cc([N+](=O)[O-])ccc3c(Nc3ccc(S(=O)(=O)NC(C)=O)cc3)c2c1
- GI50 (BT-549): > 100 µM (inactive)
- GI50 (Hs-578T): 85.9 µM (inactive)

Structure (SMILES): N#C/C(=C/c1cccc2ccccc12)C(=O)c1ccccc1
- GI50 (DMS-114): 51.6 µM (inactive)
- GI50 (KM-20L2): 19 µM (inactive)
- GI50 (M19-MEL): 28.4 µM (inactive)
- GI50 (SNB-78): 42.9 µM (inactive)

Structure (SMILES): COC(=O)C1CCCCCCCCCCC12SCCCS2 (stereo not given)
- GI50 (Hs-578T): 30.4 µM (inactive)

Structure (SMILES): CCCCCCOc1ccc(C(=O)NOC)cc1
- GI50 (BT-549): 82.8 µM (inactive)
- GI50 (Hs-578T): > 100 µM (inactive)

Structure (SMILES): COc1ccc(C(=O)N(C(=O)N2CCN(c3ccccc3)CC2)S(=O)(=O)c2ccccc2)cc1
- GI50 (BT-549): 33.3 µM (inactive)
- GI50 (Hs-578T): 25.1 µM (inactive)

Structure (SMILES): O=c1cc(-c2cccnc2)[nH]c2cc3c(cc12)OCO3
- GI50 (BT-549): 30.3 µM (inactive)
- GI50 (DLD-1): 4.03 µM (inactive)
- GI50 (DMS-114): 7.01 µM (inactive)
- GI50 (Hs-578T): 11.3 µM (inactive)
- GI50 (LXFL 529): 2.3 µM (inactive)
- GI50 (M19-MEL): 3.59 µM (inactive)
- GI50 (SNB-78): 27.7 µM (inactive)

Structure (SMILES): CC(=O)CC(=O)CCC(=O)Nc1cccc(C(F)(F)F)c1
- GI50 (DLD-1): > 100 µM (inactive)
- GI50 (DMS-114): > 100 µM (inactive)
- GI50 (KM-20L2): > 100 µM (inactive)
- GI50 (LXFL 529): > 100 µM (inactive)
- GI50 (SNB-78): > 100 µM (inactive)

Structure (SMILES): O=C(Nc1nc2ccccc2n1Cc1ccccc1)NC12CC3CC(CC(C3)C1)C2
- GI50 (DLD-1): 87.9 µM (inactive)
- GI50 (DMS-114): 57.3 µM (inactive)
- GI50 (KM-20L2): > 100 µM (inactive)
- GI50 (LXFL 529): 67.8 µM (inactive)
- GI50 (M19-MEL): 61.4 µM (inactive)
- GI50 (SNB-78): 19.8 µM (inactive)

Structure (SMILES): CCN(CC)c1ccc(/N=N/c2ccc(-c3nc4cccnc4s3)cc2)cc1
- GI50 (DLD-1): > 100 µM (inactive)
- GI50 (DMS-114): 46.5 µM (inactive)
- GI50 (KM-20L2): > 100 µM (inactive)
- GI50 (LXFL 529): > 100 µM (inactive)
- GI50 (M19-MEL): 7.69 µM (inactive)
- GI50 (SNB-78): > 100 µM (inactive)

Structure (SMILES): O=S(=O)(c1ccccc1)[C@@H]1[C@H]2C=C[C@](CS)(O2)[C@H]1S(=O)(=O)c1ccccc1
- GI50 (BT-549): 35.2 µM (inactive)
- GI50 (Hs-578T): > 100 µM (inactive)

Structure (SMILES): C/C(=N\NC(=S)N1CCOCC1)c1nc2cccnc2[nH]1
- GI50 (BT-549): 11.2 µM (inactive)
- GI50 (Hs-578T): 39.2 µM (inactive)

Structure (SMILES): [N-]=[N+]=C1C(=O)c2ccccc2-c2ccccc21
- GI50 (BT-549): 34.4 µM (inactive)
- GI50 (Hs-578T): 33 µM (inactive)
